The test system of the experiment is MES-SA. Nature of the experiment: relative viability vs DMSO control (72 h) (fraction); higher = more viable cells. In short, it runs like this:
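Sarcoma cell lines in 384-well plates, seeded to reach 80–90% confluence, were given compound after 24 h and kept 72 h at 37 °C, 5% CO2, with 0.1% DMSO vehicle and a 5 µM positive control. Relative viability came from ATPLite as percent growth, averaged over up to triplicate wells. On the rescaled values, 1 equals full and 0 equals none.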

The results in this text go back to the supplement of paper PMC10883282.

Structures are written as SMILES. ± gives the standard deviation of the averaged measurements.

As to `COc1c(OCCCN2CCOCC2)ccc2c1N=C(NC(=O)c1cnc(N)nc1)N1CCN=C21` [Copanlisib], the relative viability reads like this: (0.00017 µM) 0.966 ± 0.029; (0.00051 µM) 0.926 ± 0.031; (0.00152 µM) 0.9 ± 0.019; (0.00457 µM) 0.633 ± 0.029; (0.01372 µM) 0.502 ± 0.016; (0.04115 µM) 0.374 ± 0.0084. Moreover, the relative viability was 0.273 ± 0.0095 (0.1235 µM); 0.164 ± 0.0066 (0.3704 µM); 0.147 ± 0.0029 (1.111 µM); 0.18 ± 0.0026 (3.333 µM); 0.159 ± 0.0078 (10 µM).

As for `CN1CCN(c2ccc3nc(-c4c(N)c5c(F)cccc5[nH]c4=O)[nH]c3c2)CC1` [Dovitinib], the relative viability by setting is: (0.00017 µM) 0.945 ± 0.032; (0.00051 µM) 0.974 ± 0.029; (0.00152 µM) 0.95 ± 0.021; (0.00457 µM) 0.95 ± 0.017; (0.01372 µM) 0.9483 ± 0.0052; (0.04115 µM) 0.9283 ± 0.009. Moreover, the relative viability amounted to 0.921 ± 0.04 (0.1235 µM); 0.836 ± 0.041 (0.3704 µM); 0.4858 ± 0.0047 (1.111 µM); 0.191 ± 0.012 (3.333 µM); 0.0897 ± 0.0022 (10 µM).

`COCc1c(-c2cc3cc(C)cc(OC)c3s2)c2c(N)ncnn2c1CN1CCNC(=O)C1` [Rogaratinib]: the relative viability runs as follows: (0.00017 µM) 0.974 ± 0.012; (0.00051 µM) 0.9554 ± 0.0066; (0.00152 µM) 0.943 ± 0.014; (0.00457 µM) 0.929 ± 0.014; (0.01372 µM) 0.939 ± 0.025; (0.04115 µM) 0.949 ± 0.046. The compound further registered a relative viability (0.1235 µM) of 0.849 ± 0.018; a relative viability (0.3704 µM) of 0.732 ± 0.02; a relative viability (1.111 µM) of 0.664 ± 0.035; a relative viability (3.333 µM) of 0.565 ± 0.012; a relative viability (10 µM) of 0.389 ± 0.019.

`CN1CCC(COc2cnc(-c3cccc(Cn4nc(-c5cccc(C#N)c5)ccc4=O)c3)nc2)CC1` [Tepotinib]: the relative viability (0.00017 µM) came out at 0.962 ± 0.038; the relative viability (0.00051 µM) amounted to 0.959 ± 0.0044; the relative viability (0.00152 µM) was found to be 0.95 ± 0.023; the relative viability (0.00457 µM) was 0.974 ± 0.033; the relative viability (0.01372 µM) was 0.955 ± 0.043; the relative viability (0.04115 µM) worked out at 0.928 ± 0.035. The relative viability by setting is: (0.1235 µM) 0.939 ± 0.028; (0.3704 µM) 0.9528 ± 0.0065; (1.111 µM) 0.94 ± 0.042; (3.333 µM) 0.875 ± 0.027; (10 µM) 0.752 ± 0.024.
